The test system of one series is Colinus virginianus. The note with it: for LD50: acute, oral, mortality.
In another series the test system is Apis mellifera. The note with it: acute; duration: 48 hours; dermal; mortality.
The next series deals with Daphnia magna. Conditions: chronic/long-term; duration: 21 days; reproduction.
The next series concerns Gasterosteus aculeatus. Conditions: acute; duration: 96 hours; mortality.
A further series concerns Homo sapiens. Conditions: clinical; oral; M/F; clinical chemistry.
The subject of the next series is Oncorhynchus mykiss. Conditions: chronic/long-term; duration: 97 days; growth.
The test system of a further series is Oryctolagus sp. The note with it: developmental; development.
The next series concerns Rattus norvegicus. Conditions: for NOAEL: clinical chemistry.
Another series concerns Tagia sp. Conditions: acute; duration: 14 days; mortality.
The subject of the next series is Aphidius rhopalosiphi. The series can be described thus: LR50; higher = less toxic. The note with it: acute; duration: 48 hours; mortality.

Converted amounts (≈) assume the structure as drawn.

For the compound `CCOC(=O)CC(SP(=O)(OC)OC)C(=O)OCC` (stereo unspecified) [Malaoxon], the LD50 with Colinus virginianus (diet) is 334 mg/kg; in the series on Colinus virginianus, 43 mg/kg.

Usually NOAEL stands for the highest dose or exposure tested at which no adverse effect was seen. On to `CCOC(=O)CC(SP(=S)(OC)OC)C(=O)OCC` (stereo unspecified) [Malathion], for which the LD50 is 0.16 µg/piece in the series on Apis mellifera; 554 mg/kg-day in the series on Colinus virginianus (diet); 359 mg/kg in the series on Colinus virginianus; 1780 mg/kg with Rattus norvegicus (acute, oral, F, mortality). In addition, the figures for the NOEC with Colinus virginianus (reproduction developmental), with Daphnia magna and in the series on Oncorhynchus mykiss were 13.5 mg/kg-day, 6e-05 mg/L and 0.021 mg/L, respectively. The LC50 amounted to 0.022 µg/mL (≈ 0.0666 µM) in the series on Gasterosteus aculeatus and 613 mg/kg with Tagia sp.. Besides, the NOAEL was more than 15 mg/kg-day in the series with Homo sapiens; 25 mg/kg-day in the series on Oryctolagus sp.; 29 mg/kg-day in the series with Rattus norvegicus (chronic, duration: 2 years); 34.4 mg/kg-day in the series with Rattus norvegicus (subchronic, duration: 90 days, oral). The LR50 in the series with Aphidius rhopalosiphi is 0.0612 g/ha.
